# Changes are numbered by the printed parent chain. Residues, ends and D or L forms follow the SMILES beside them.
# Key:
# NPSR1-Asn(107) = molecular target: T1, NPSR1-Asn(107) (Homo sapiens, UniProt Q6W5P4); test: CRE-dependent luciferase activity, NPSR1-Asn(107); assay type: cell-based; settings: HEK293 transiently transfected with NPSR1-Asn(107); NPS 10 pM-100 μM, 3 h; three experiments in triplicates; mean ± SE; Val(6) vs Leu(6) p = 0.03; read-out: pEC50 for CRE-dependent luciferase activity (converted)
# T1 construct: expressed in transfected cells; host or cells: HEK293
# T1 sequence (Q6W5P4 1-371): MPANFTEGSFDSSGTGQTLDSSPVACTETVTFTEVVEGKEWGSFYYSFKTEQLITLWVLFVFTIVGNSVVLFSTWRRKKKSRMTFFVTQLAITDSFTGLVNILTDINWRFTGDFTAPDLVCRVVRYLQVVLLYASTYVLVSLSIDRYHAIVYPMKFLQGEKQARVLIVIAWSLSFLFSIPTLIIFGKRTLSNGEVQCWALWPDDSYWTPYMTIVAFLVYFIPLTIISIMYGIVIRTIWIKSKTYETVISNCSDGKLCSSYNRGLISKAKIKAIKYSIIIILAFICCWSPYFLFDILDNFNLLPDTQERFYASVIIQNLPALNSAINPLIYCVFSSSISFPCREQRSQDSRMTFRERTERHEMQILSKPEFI
# From the text: (§1) To compare the bioactivities of the two NPS variants, we measured the dose-responses of NPSR1-Ile(107) and NPSR1-Asn(107) coding variants to either wildtype NPS-Val(6) or alternative NPS-Leu(6) in a luciferase assay dependent on the activation of a cAMP-response element (CRE). This assay was used since elevation of the intracellular cAMP levels activates cAMP response element binding protein (CREB) via […]. Activated CREB binds to CRE and induces the expression of downstream target genes of the cAMP/PKA signaling pathway. Because of the low endogenous expression levels of NPSR1 in majority of the available cell lines, we first used HEK293 cells with forced NPSR1 expression as a model for ligand-receptor interactions. […] Firefly and Renilla luciferase activity was measured 3 h after stimulation with serial dilutions of NPS (10 pM-100 μM). […]
# (§2) Human embryonic kidney cells (HEK293) were cultured in MEM+GlutaMAX-1 medium (Gibco/Invitrogen) supplemented with 10% fetal calf serum (FCS) (Biosera), 1% sodium pyruvate, 1% non-essential amino acids and 1% penicillin/streptomycin (Gibco/Invitrogen). […] The HEK293 cell line was chosen for ligand-receptor studies because it is a well-established model for addressing numerous questions in basic biology and is easy to transfect and amenable of stringent quantitative assessment. […]
# NPSR1-Ile(107) = molecular target: T2, NPSR1-Ile(107) (Homo sapiens, UniProt Q6W5P4, N107I); test: CRE-dependent luciferase activity, NPSR1-Ile(107); assay type: cell-based; design: expressed in transfected cells; host or cells: HEK293; settings: HEK293 transiently transfected with NPSR1-Ile(107); NPS 10 pM-100 μM, 3 h; three experiments in triplicates; mean ± SE; Val(6) vs Leu(6) p = 0.004; read-out: pEC50 for CRE-dependent luciferase activity (converted)
# T2 sequence (Q6W5P4 1-371 N107I): T1 sequence (Q6W5P4 1-371) with N107I
# From the text: as §1, §2
EC50 (NPSR1-Asn(107)) [nM],EC50 (NPSR1-Ile(107)) [nM],SMILES
12600,200,CSCC[C@H](NC(=O)CNC(=O)[C@@H](NC(=O)CNC(=O)[C@H](CC(C)C)NC(=O)CNC(=O)[C@H](CC(N)=O)NC(=O)[C@H](CCCNC(=N)N)NC(=O)[C@H](Cc1ccccc1)NC(=O)[C@@H](N)CO)[C@@H](C)O)C(=O)N[C@@H](CCCCN)C(=O)N[C@@H](CCCCN)C(=O)N[C@H](C(=O)N[C@@H](CO)C(=O)N[C@@H](Cc1ccccc1)C(=O)N[C@@H](CCC(N)=O)C(=O)N[C@@H](CCCNC(=N)N)C(=O)N[C@@H](C)C(=O)N[C@@H](CCCCN)C(=O)N[C@@H](CO)C(=O)O)[C@@H](C)O [NPS-Leu(6)] (H-SFRNGLGTGMKKTSFQRAKS-OH)
794,3.98,CSCC[C@H](NC(=O)CNC(=O)[C@@H](NC(=O)CNC(=O)[C@@H](NC(=O)CNC(=O)[C@H](CC(N)=O)NC(=O)[C@H](CCCNC(=N)N)NC(=O)[C@H](Cc1ccccc1)NC(=O)[C@@H](N)CO)C(C)C)[C@@H](C)O)C(=O)N[C@@H](CCCCN)C(=O)N[C@@H](CCCCN)C(=O)N[C@H](C(=O)N[C@@H](CO)C(=O)N[C@@H](Cc1ccccc1)C(=O)N[C@@H](CCC(N)=O)C(=O)N[C@@H](CCCNC(=N)N)C(=O)N[C@@H](C)C(=O)N[C@@H](CCCCN)C(=O)N[C@@H](CO)C(=O)O)[C@@H](C)O [NPS-Val(6)] (H-SFRNGVGTGMKKTSFQRAKS-OH)
